Assay [1] relates to prions (10% brain homogenates from hamsters with scrapie). Format: in vivo, hamster. Conditions: hydrogen peroxide vapor of higher concentrations and/or higher plasma density.
In another assay the test system is prions. Conditions: 59% solution admitted into sterilization chamber under vacuum, vapor at one point excited into plasma.

Regarding `OO` [hydrogen peroxide], the “inactivating prions, rendering article non-infectious for prion diseases” value in assay [1] is “effective in inactivating prions”. In addition, in the assay with prions, the “inactivation of prions on the instruments” value is listed as “failed to sufficiently inactivate prions”.

The values are drawn from patent US20070231202A1 (priority 2006, published 2007).
